# Assay results taken from US20220169639A1 (priority 2018, published 2022).
# Test system: HBeAg (surrogate marker for cccDNA) in HepDES19 cells
# Assay: Engineered HepDES19 primary screen assay (HBeAg ELISA)
# Format: cell-based, HBV
# Conditions: Hepatitis B virus, 120 h, HBeAg in culture supernatant, 5 days incubation, read-out: IC50 (HepDES19 primary screen assay, inhibition of extracellular HBeAg level)
# From the text: The assay was employed to screen for cccDNA inhibitors. HepDES19 is a cccDNA-producing cell line. In this cell line, HBeAg in the cell culture supernatant as surrogate marker, as HBeAg production depends on cccDNA level and activity. HepDES19 is an engineered cell line which contains a 1.1 unit length HBV genome, and pgRNA transcription from the transgene is controlled by Tetracycline (Tet). In the absence of Tet, pgRNA transcription will be induced, but HBV e antigen (HBeAg) could not be produced from this pgRNA due to very short leader sequence before the HBeAg start codon and the start codon is disrupted. Only after cccDNA is formed, the missing leader sequence and start codon mutation would be restored from the 3′-terminal redundancy of pgRNA, and then HBeAg could be synthesized. Therefore, HBeAg could be used as a surrogate marker for cccDNA (Zhou, T. et al., Antiviral Res. (2006), 72(2), 116-124; Guo, H. et al., J. Virol. (2007), 81(22), 12472-12484).
# HepDES19 cells were seeded at 2×10^6 cells per T150 flask and cultured with the culture medium (Dulbecco's Modified Eagle Medium: Nutrient Mixture F-12 [DMEM-F12, Gibco Cat. 11320-82], 10% Fetal Bovine Serum [FBS, Clontech Cat. 631101], 0.1 mM Non-Essential Amino Acids Solution [NEAA, Gibco Cat. 11140-050], 50 μg/mL Penicillin-Streptomycin [PS, Invitrogen Cat. 15140-163], 500 μg/mL Geneticin [G418, Invitrogen Cat. 10131-027]) containing 3 μg/mL Tet (Sigma, Cat. 87128) for 5 days. Cells were then seeded at 4×10^6 cells per T150 in the same culture medium as described above in the absence of Tet for 8 days. Cells were then harvested and frozen at density of 2×10^6 cells per mL. For compound testing, the frozen cells were thawed and seeded into 96-well plates at a density of 6×10^4 cells per well. At 24 hours after seeding, half log serial dilutions of compounds made with Dimethyl sulfoxide (DMSO, Sigma, Cat. D2650) were further diluted with the same culture medium as described above before they were added to the cells to reach desired final compound concentrations and 1% DMSO concentration. Plates were then incubated at 37° C. for another 5 days before measurement of HBeAg level and cell viability. Intracellular HBeAg level were measured with enzyme-linked immunosorbent assay (ELISA) kit (Shanghai Kehua Diagnostic Medical Products Co., Ltd). Cell viability was assessed using Cell Counting Kit-8 (DonJindo, Cat. CK04-20). IC50 values were derived from the dose-response curve using 4 parameter logistic curve fit method.
# The compounds of the present invention were tested for their capacity to inhibit extracellular HBeAg level as described herein.
row,SMILES,IC50 [µM]
1,"O=C(NCCOc1cc(C(F)(F)F)ccc1-c1cc(=O)c2cccc(Cl)c2o1)C(=O)NC1CC1 [Example 148, N-[2-[2-(8-chloro-4-oxo-chromen-2-yl)-5-(trifluoromethyl)phenoxy]ethyl]-N′-cyclopropyl-oxamide]",1.21
2,"NS(=O)(=O)NCCOc1cc(C(F)(F)F)ccc1-c1cc(=O)c2cccc(Cl)c2o1 [Example 159, 8-chloro-4-oxo-2-[2-[2-(sulfamoylamino)ethoxy]-4-(trifluoromethyl)phenyl]chromene]",0.83
3,"O=C(O)C(CC1CCCCC1)NCCCOc1cc(C(F)(F)F)ccc1-c1cc(=O)c2cccc(Cl)c2o1 (stereo not drawn) [Example 063, 2-[3-[2-(8-chloro-4-oxo-chromen-2-yl)-5-(trifluoromethyl)phenoxy]propylamino]-3-cyclohexyl-propanoic acid]",4.32
4,COC(=O)NCCOc1cc(Br)ccc1-c1cc(=O)c2cccc(Cl)c2o1 [Example 105],1.9
5,"O=C(O)C1CCN(CCOc2ccccc2-c2cc(=O)c3cccc(Cl)c3o2)C1 (stereo not drawn) [Example 031, 1-[2-[2-(8-chloro-4-oxo-chromen-2-yl)phenoxy]ethyl]pyrrolidine-3-carboxylic acid]",0.17
6,CC(=O)N(CCCOc1cc(C(F)(F)F)ccc1-c1cc(=O)c2cccc(Cl)c2o1)CC(=O)O [Example 144],11.4
7,"O=C(O)[C@@H]1CCCN1CCOc1ccccc1-c1cc(=O)c2cccc(Cl)c2o1 [Example 032, (2S)-1-[2-[2-(8-chloro-4-oxo-chromen-2-yl)phenoxy]ethyl]pyrrolidine-2-carboxylic acid]",0.65
8,O=c1cc(-c2ccc(Br)cc2OC2CCN(S(=O)(=O)C3CC3)CC2)oc2c(Cl)cccc12 [Example 108],1.14
9,CCOC(=O)NCCOc1cc(Br)ccc1-c1cc(=O)c2cccc(Cl)c2o1 [Example 106],1.1
10,"CS(=O)(=O)CCNCCCOc1cc(C(F)(F)F)ccc1-c1cc(=O)c2cccc(Cl)c2o1 [Example 079, 8-chloro-2-[2-[3-(2-methylsulfonylethylamino)propoxy]-4-(trifluoromethyl)phenyl]chromen-4-one]",0.78
11,"CCOC(=O)C(=O)N(CCCOc1cc(C(F)(F)F)ccc1-c1cc(=O)c2cccc(Cl)c2o1)S(=O)(=O)CC [Example 138, ethyl 2-[3-[2-(8-chloro-4-oxo-chromen-2-yl)-5-(trifluoromethyl)phenoxy]propyl-ethylsulfonyl-amino]-2-oxo-acetate]",4.56
12,"O=c1cc(-c2ccc(Br)cc2OCCN[C@H]2CC[C@@H](C(=O)O)CC2)oc2c(Cl)cccc12 [Example 055, cis-4-[2-[5-bromo-2-(8-chloro-4-oxo-chromen-2-yl)phenoxy]ethylamino]cyclohexanecarboxylic acid]",0.98
13,CC(C)[C@@H]1NC(=O)N(CCOc2cc(C(F)(F)F)ccc2-c2cc(=O)c3cccc(Cl)c3o2)C1=O [Example 153],0.83
14,Cc1ccc(-c2cc(=O)c3cccc(Cl)c3o2)c(OCCN2C(=O)N[C@@H](C(C)C)C2=O)c1 [Example 152],0.48
15,"Cc1ccc(-c2cc(=O)c3cccc(Cl)c3o2)c(OCCNC(=O)C(=O)N2CC[C@H](O)C2)c1 [Example 150, N-[2-[2-(8-chloro-4-oxo-chromen-2-yl)-5-methyl-phenoxy]ethyl]-2-[(3S)-3-hydroxypyrrolidin-1-yl]-2-oxo-acetamide]",12.2
16,"CCOC(=O)C(=O)NCCCOc1cc(C)ccc1-c1cc(=O)c2cccc(Cl)c2o1 [Example 095, ethyl 2-[3-[2-(8-chloro-4-oxo-chromen-2-yl)-5-methyl-phenoxy]propylamino]-2-oxo-acetate]",9.3
17,"O=C(O)[C@H]1CCN(CC(O)COc2cc(C(F)(F)F)ccc2-c2cc(=O)c3cccc(Cl)c3o2)C1 (stereo partly drawn) [Example 163, (3S)-1-[3-[2-(8-chloro-4-oxo-chromen-2-yl)-5-(trifluoromethyl)phenoxy]-2-hydroxy-propyl]pyrrolidine-3-carboxylic acid]",2.76

row,SMILES,IC50 [µM]
1,"Cc1ccc(-c2cc(=O)c3cccc(Cl)c3o2)c(OCCN(C(=O)C(=O)O)C2CC2)c1 [Example 135, 2-[2-[2-(8-chloro-4-oxo-chromen-2-yl)-5-methyl-phenoxy]ethyl-cyclopropyl-amino]-2-oxo-acetic acid]",0.21
2,"O=c1cc(-c2ccc(C(F)(F)F)cc2OCC(O)CNS(=O)(=O)C2CC2)oc2c(Cl)cccc12 (stereo not drawn) [Example 086, N-[3-[2-(8-chloro-4-oxo-chromen-2-yl)-5-(trifluoromethyl)phenoxy]-2-hydroxy-propyl]cyclopropanesulfonamide]",3.22
3,"C[C@@H]1CN(CCOc2cc(Br)ccc2-c2cc(=O)c3cccc(Cl)c3o2)C[C@H]1C(=O)O [Example 024, (3S,4S)-1-[2-[5-bromo-2-(8-chloro-4-oxo-chromen-2-yl)phenoxy]ethyl]-4-methyl-pyrrolidine-3-carboxylic acid]",1.04
4,"CC(NCCOc1cc(C(F)(F)F)ccc1-c1cc(=O)c2cccc(Cl)c2o1)C(=O)O (stereo not drawn) [Example 057, 2-[2-[2-(8-chloro-4-oxo-chromen-2-yl)-5-(trifluoromethyl)phenoxy]ethylamino]propanoic acid]",1.5
5,"CC(CC(=O)O)NCCCOc1cc(C(F)(F)F)ccc1-c1cc(=O)c2cccc(Cl)c2o1 (stereo not drawn) [Example 062, 3-[3-[2-(8-chloro-4-oxo-chromen-2-yl)-5-(trifluoromethyl)phenoxy]propylamino]butanoic acid]",2.02
6,"O=C(O)C1CCN(CCCOc2cc(C(F)(F)F)ccc2-c2cc(=O)c3cccc(Cl)c3o2)C1 (stereo not drawn) [Example 012, 1-[3-[2-(8-chloro-4-oxo-chromen-2-yl)-5-(trifluoromethyl)phenoxy]propyl]pyrrolidine-3-carboxylic acid]",0.11
7,"CS(=O)(=O)NC(=O)C1CCCN1CCOc1cc(Br)ccc1-c1cc(=O)c2cccc(Cl)c2o1 (stereo not drawn) [Example 074, 1-[2-[5-bromo-2-(8-chloro-4-oxo-chromen-2-yl)phenoxy]ethyl]-N-methylsulfonyl-pyrrolidine-2-carboxamide]",1.03
8,"Cc1cc(-c2cc(=O)c3cccc(Cl)c3o2)c(OCCN2CC(C(=O)O)C2)cc1Cl [Example 061, 1-[2-[5-chloro-2-(8-chloro-4-oxo-chromen-2-yl)-4-methyl-phenoxy]ethyl]azetidine-3-carboxylic acid]",5.71
9,"CC(C)COc1ccc(-c2cc(=O)c3cccc(Cl)c3o2)c(OCCN2CC[C@@H](C(=O)O)C2)c1 [Example 039, (3R)-1-[2-[2-(8-chloro-4-oxo-chromen-2-yl)-5-isobutoxy-phenoxy]ethyl]pyrrolidine-3-carboxylic acid]",3.48
10,CCOC(=O)C(=O)NCCOc1cc(C)ccc1-c1cc(=O)c2cc(OC)cc(Cl)c2o1 [Example 103],3.66
11,"O=C(O)[C@@H]1CCCN1CCCOc1cc(Br)ccc1-c1cc(=O)c2cccc(Cl)c2o1 [Example 004, (2S)-1-[3-[5-bromo-2-(8-chloro-4-oxo-chromen-2-yl)phenoxy]propyl]pyrrolidine-2-carboxylic acid]",2.02
12,"CC(C)(C)CC(NCCCOc1cc(C(F)(F)F)ccc1-c1cc(=O)c2cccc(Cl)c2o1)C(=O)O (stereo not drawn) [Example 011, 2-[3-[2-(8-chloro-4-oxo-chromen-2-yl)-5-(trifluoromethyl)phenoxy]propylamino]-4,4-dimethyl-pentanoic acid]",3.61
13,"Cc1ccc(-c2cc(=O)c3cccc(Cl)c3o2)c(OCCNC(=O)N[C@@H](C)C(=O)O)c1 [Example 151, (2S)-2-[2-[2-(8-chloro-4-oxo-chromen-2-yl)-5-methyl-phenoxy]ethylcarbamoylamino]propanoic acid]",0.63
14,"COc1ccc2oc(-c3ccccc3OC)cc(=O)c2c1 [Example F-2, 6-methoxy-2-(2-methoxyphenyl)chromen-4-one, reference compound]",> 50
15,Cc1ccc(-c2cc(=O)c3cccc(Cl)c3o2)c(O[C@H]2CCN(C(=O)C(=O)O)C2)c1 [Example 132],0.35
16,"CCNS(=O)(=O)N(C)CCOc1cc(C)ccc1-c1cc(=O)c2cccc(Cl)c2o1 [Example 136, 8-chloro-2-[2-[2-[ethylsulfamoyl(methyl)amino]ethoxy]-4-methyl-phenyl]-4-oxo-chromene]",0.58
